Results on four compounds are retold here after article PMC11642016 (International Journal of Molecular Sciences, 2024).

Data set [1] has as its system PANC-1 cells. Nature of the data set: CellTiter-Glo luminescent cell viability assay, PANC-1. The note with it: 72 h, first-set screening, mean ± SD, n = 2; for viability at 2.8 µM / viability at 8.3 µM / viability at 25 µM: Homo sapiens, PANC-1, 72 h; for viability at 2.8 µM: read-out: Cell Viability (% of Control) 2.8 µM, PANC-1; for viability at 8.3 µM: read-out: Cell Viability (% of Control) 8.3 µM, PANC-1; for viability at 25 µM: read-out: Cell Viability (% of Control) 25 µM, PANC-1; for Cell Viability (% of Control) 2.8 µM / Cell Viability (% of Control) 8.3 µM / Cell Viability (% of Control) 25 µM: PANC-1. Background: In ATP-based viability assays light output follows the ATP content of the culture.
Procedure: Primary fibroblast cultures were prepared from human skin biopsies and maintained in DMEM supplemented with 10% FBS, 1% penicillin-streptomycin, and 1% MEM Non-Essential Amino Acids Solution (Thermo Fisher Scientific). […] All cell lines were cultured in a humidified atmosphere at 37 °C and 5% CO2, passaged twice a week, and the experiments were performed on cells between passage 5 and 15. The cell lines were routinely screened for the absence of mycoplasma infection (DAPI staining).
The effects of the synthesized compounds on cell viability were measured using the CellTiter-Glo® luminescent cell viability assay (Promega, Madison, WI, USA), according to the manufacturer’s instructions. Briefly, cells were seeded onto a flat-bottomed, white 96-well plate (BRANDplates, cat. no.: 781965)), with the following densities: PANC-1: 750 cells/well, Fadu: 2000 cells/well, primary fibroblasts: 2000 cells/well, HEK293T WT: 1000 cells/well, HEK293T CLPP^−/−: 2500 cells/well. After seeding, cells were incubated for a further 48 h before treatment. Cells were treated with the compounds for 72 h. Three concentrations (25.0 µM; 8.3 µM; 2.8 µM) were applied during the initial cell viability screening, while for the determination of dose–response curves, 1.5-fold serially diluted compound concentrations were applied (range: 26 µM–0.7 µM). After treatment, the luminescence signal was recorded using a microplate reader (BioTek Synergy 2 Multi-Mode Reader, BioTek, Winooski, VT, USA).
Data analysis was performed using GraphPad Prism 9.5.0 software (GraphPad Software, San Diego, CA, USA). […] The dose–response curves were generated by four-parameter nonlinear regression, and the IC50 values were determined as the means ± SEM of the best-fit values of 3 independent measurements. The R^2 values were consistently above 0.93, indicating a strong fit of the model to the experimental data (Supplementary S.89). […] Dunnett’s post hoc test was applied to adjust for multiple comparisons, minimizing the likelihood of false positive results. Assumptions for ANOVA, including normality (assessed via QQ plots) and homogeneity of variance (tested using the Brown–Forsythe test), were verified. The following significance levels were applied: * p < 0.05, ** p < 0.01, *** p < 0.001, **** p < 0.0001. […] The tumor selectivity of the compounds was quantitatively characterized by the selectivity index (SI). This parameter was calculated as the ratio of the average best-fit IC50 value for primary fibroblasts and the best-fit IC50 value for the corresponding tumor cells (PANC-1 or Fadu).

Data set [2] relates to Fadu cells. Nature of the data set: CellTiter-Glo luminescent cell viability assay, Fadu. As to conditions: 72 h, 72 h, first-set screening, mean ± SD, n = 2; for viability at 2.8 µM / viability at 8.3 µM / viability at 25 µM: Homo sapiens, FaDu; for viability at 2.8 µM: read-out: Cell Viability (% of Control) 2.8 µM, Fadu; for viability at 8.3 µM: read-out: Cell Viability (% of Control) 8.3 µM, Fadu; for viability at 25 µM: read-out: Cell Viability (% of Control) 25 µM, Fadu; for Cell Viability (% of Control) 2.8 µM / Cell Viability (% of Control) 8.3 µM / Cell Viability (% of Control) 25 µM: Fadu.

`NCC#Cc1ccc(CN2C(=O)C3=C(CCN(Cc4ccc(-n5cc(-c6cccc(N)c6)nn5)cc4)C3)N3CCN=C23)cc1` [1a]: in data set [1], the viability (usually a read-out of living cells in per cent, often relative to untreated cells) at 2.8 µM was found to be 100 ± 5%; the viability at 8.3 µM was determined as 93 ± 7%; the viability at 25 µM worked out at 3 ± 2%. Also, in data set [2], the viability at 2.8 µM came to 106 ± 2%, the viability at 8.3 µM is 99 ± 2% and the viability at 25 µM is 10%.
Take `O=C1C2=C(CCN(Cc3ccc(-n4cc(-[c-]5cccc5)nn4)cc3)C2)N2CCN=C2N1Cc1ccc(C#CCO)cc1.[Fe+2].c1cc[cH-]c1` [1b]: in data set [1], the “Cell Viability (% of Control) 2.8 µM” value is 92 ± 0 % of Control, the “Cell Viability (% of Control) 8.3 µM” value is 93 ± 3 % of Control and the “Cell Viability (% of Control) 25 µM” value is given as 95 ± 2 % of Control. In data set [2], the “Cell Viability (% of Control) 2.8 µM” value is 88 ± 4 % of Control, the “Cell Viability (% of Control) 8.3 µM” value was 83 ± 0 % of Control and the “Cell Viability (% of Control) 25 µM” value was 68 ± 3 % of Control.
On to `C=CC(=O)Nc1cccc(-c2cn(-c3ccc(CN4CCC5=C(C4)C(=O)N(Cc4ccc(C#CCN)cc4)C4=NCCN45)cc3)nn2)c1` [1e], for which, in data set [1], the viability at 2.8 µM worked out at 101 ± 7%, the viability at 8.3 µM amounted to 91 ± 1% and the viability at 25 µM turned out to be 102%. In data set [2], the viability at 2.8 µM amounted to 96 ± 6%, the viability at 8.3 µM is 59 ± 4% and the viability at 25 µM was 69 ± 2%.
Take `O=C1C2=C(CCN(Cc3cccc(-n4cc(-[c-]5cccc5)nn4)c3)C2)N2CCN=C2N1Cc1ccc(C#CCO)cc1.[Fe+2].c1cc[cH-]c1` [3c]: in data set [1], the “Cell Viability (% of Control) 2.8 µM” value is on record as 100 ± 3 % of Control, the “Cell Viability (% of Control) 8.3 µM” value is reported as 98 ± 1 % of Control and the “Cell Viability (% of Control) 25 µM” value is 98 ± 1 % of Control. In addition, in data set [2], the “Cell Viability (% of Control) 2.8 µM” value is recorded as 103 ± 9 % of Control, the “Cell Viability (% of Control) 8.3 µM” value is listed as 99 ± 2 % of Control and the “Cell Viability (% of Control) 25 µM” value is on record as 85 ± 5 % of Control.
